Measured values as given in patent US11407760B2, “Dioxinoquinoline compounds, preparation method and uses thereof” (BEIJING SCITECH-MQ PHARMACEUTICALS LIMITED, priority 2018, dated 2022).

System: MHCC97H cells
Test: Inhibitory activity on the proliferation of MHCC97H cells (CCK-8)
Format: cell-based
Settings: Homo sapiens, MHCC97H cell proliferation, 72 hours of incubation
Procedure: Biological Example 3. Assay of the Inhibitory Activity of Small Molecular Compounds on the Proliferation of MHCC97H Cells
The specific steps of the assay are as follows:
1. Dilution of compounds: a total of 9 concentrations were obtained using a 3-fold gradient dilution from the highest concentration of 5000 nM (the maximum final concentration of the drug used in this assay was 5000 nM, and the minimum final concentration was 0.76 nM).
2. MHCC97H cells were collected, then transferred to a 15 mL centrifuge tube, and centrifuged at 1000 rpm for 5 minutes.
3. The supernatant was discarded, and the complete medium was added and pipetted evenly, 10 μL of cell suspension was taken out and mixed evenly with 10 μL of 0.4% trypan blue, the counting was carried out with a cell counter, and the number and survival rate of cells were recorded;
4. The cell suspension was seeded into a 96-well plate at 5000 cells/80 μL per well;
5. 20 μL of the corresponding 5× compound solution diluted with the medium mentioned above was added to each well and mixed evenly;
6. After 72 hours of incubation, 10 μL of CCK-8 reagent was added to each well and incubated for another 2 hours (the reaction time can be adjusted according to the color depth);
7. The OD value was read at 450 nm on a multi-function plate reader.
8. Data processing: cell survival rate (%)=[(As−Ab)/(Ac−Ab)]*100%
As: OD value of assay well (medium containing cells, CCK-8, compound),
Ac: OD value of control well (medium containing cells, CCK-8),
Ab: OD value of blank well (CCK-8, medium without cell and compound),
The values were then imported into Graphpad Prism5 software for curve fitting, and IC50 was calculated.
Table 3 lists the assay results of the inhibitory activity of some compounds disclosed herein on the proliferation of the MHCC97H cell line.

Row | SMILES | IC50
1 | COCCN(C)CCCOc1cc2nccc(Oc3ccc(NC(=O)C4(C(=O)Nc5ccc(F)cc5)CC4)cc3F)c2c2c1OCCO2 [Example 15, N-(3-fluoro-4-((5-(3-((2-methoxyethyl)(methyl)amino)propoxy)-2,3-dihydro-[1,4]dioxino [2,3-f]quinolin-10-yl)oxy)phenyl)-N-(4-fluorophenyl)cyclopropan-1,1-dicarboxamide] | < 50 nM
2 | CC1(C)CCN(CCCOc2cc3nccc(Oc4ccc(NC(=O)C5(C(=O)Nc6ccc(F)cc6)CC5)cc4F)c3c3c2OCCO3)CC1 [Example 29, N-(3-fluoro-4-((5-(3-(4,4-dimethylpiperidin-1-yl)propoxy)-2,3-dihydro-[1,4]dioxino[2,3-f]quinolin-10-yl)oxy)phenyl)-N-(4-fluorophenyl)cyclopropan-1,1-dicarboxamide] | < 50 nM
3 | COc1cc2nccc(Oc3cc(Cl)c(NC(=O)C4(C(=O)Nc5ccc(F)cc5)CC4)cc3F)c2c2c1OCCO2 [Example 35, N-(2-chloro-5-fluoro-4-((5-methoxy-2,3-dihydro-[1,4]dioxino[2,3-f]quinolin-10-yl)oxy)phenyl)-N-(4-fluorophenyl)cyclopropan-1,1-dicarboxamide] | < 50 nM
4 | COc1cc2nccc(Oc3ccc(NC(=O)C4(C(=O)Nc5ccc(F)cc5)CC4)cc3)c2c2c1OCCO2 [Example 1, N-(4-fluorophenyl)-N-(4-((5-methoxy-2,3-dihydro-[1,4]dioxino[2,3-f]quinolin-10-yl)oxy)phenyl)cyclopropan-1,1-dicarboxamide] | < 50 nM
5 | CC1(O)CCN(CCCOc2cc3nccc(Oc4ccc(NC(=O)C5(C(=O)Nc6ccc(F)cc6)CC5)cc4F)c3c3c2OCCO3)CC1 [Example 22, N-(3-fluoro-4-((5-(3-(4-hydroxy-4-methylpiperidin-1-yl)propoxy)-2,3-dihydro-[1,4]dioxino[2,3-f]quinolin-10-yl)oxy)phenyl)-N-(4-fluorophenyl)cyclopropan-1,1-dicarboxamide] | < 50 nM
6 | O=C(Nc1ccc(F)cc1)C1(C(=O)Nc2ccc(Oc3ccnc4cc(OC5COC5)c5c(c34)OCCO5)c(F)c2)CC1 [Example 28, N-(3-fluoro-4-((5-(oxetan-3-yloxy)-2,3-dihydro-[1,4]dioxino[2,3-f]quinolin-10-yl)oxy)phenyl)-N-(4-fluorophenyl)cyclopropan-1,1-dicarboxamide] | < 50 nM
7 | CCOc1cc2nccc(Oc3ccc(NC(=O)C4(C(=O)Nc5ccc(F)cc5)CC4)cc3F)c2c2c1OCCO2 [Example 7, N-(4-((5-ethoxy-2,3-dihydro-[1,4]dioxino[2,3-f]quinolin-10-yl)oxy)-3-fluorophenyl)-N-(4-fluorophenyl)cyclopropan-1,1-dicarboxamide] | < 50 nM
8 | CC1(N)CCN(CCCOc2cc3nccc(Oc4ccc(NC(=O)C5(C(=O)Nc6ccc(F)cc6)CC5)cc4F)c3c3c2OCCO3)CC1 [Example 30, N-(3-fluoro-4-((5-(3-(4-amino-4-methylpiperidin-1-yl)propoxy)-2,3-dihydro-[1,4]dioxino[2,3-f]quinolin-10-yl)oxy)phenyl)-N-(4-fluorophenyl)cyclopropan-1,1-dicarboxamide] | < 500 nM
9 | COCCOc1cc2nccc(Oc3ccc(NC(=O)C4(C(=O)Nc5ccc(F)cc5)CC4)cc3F)c2c2c1OCCO2 [Example 10, N-(3-fluoro-4-((5-(2-methoxyethoxy)-2,3-dihydro-[1,4]dioxino[2,3-f]quinolin-10-yl)oxy)phenyl)-N-(4-fluorophenyl)cyclopropan-1,1-dicarboxamide] | < 50 nM
10 | O=C(Nc1ccc(F)cc1)C1(C(=O)Nc2ccc(Oc3ccnc4cc(OC5CCOC5)c5c(c34)OCCO5)c(F)c2)CC1 (stereo not drawn) [Example 17, N-(3-fluoro-4-((5-((tetrahydrofuran-3-yl)oxy)-2,3-dihydro-[1,4]dioxino[2,3-f]quinolin-10-yl)oxy)phenyl)-N-(4-fluorophenyl)cyclopropan-1,1-dicarboxamide] | < 50 nM
11 | CN(C)CCCOc1cc2nccc(Oc3ccc(NC(=O)C4(C(=O)Nc5ccc(F)cc5)CC4)cc3F)c2c2c1OCCO2 [Example 8, N-(4-((5-(3-(dimethylamino)propoxy)-2,3-dihydro-[1,4]dioxino[2,3-f]quinolin-10-yl)oxy)-3-fluorophenyl)-N-(4-fluorophenyl)cyclopropan-1,1-dicarboxamide] | < 50 nM
12 | O=C(Nc1ccc(F)cc1)C1(C(=O)Nc2ccc(Oc3ccnc4cc(OCCO)c5c(c34)OCCO5)c(F)c2)CC1 [Example 32, N-(3-fluoro-4-((5-(2-hydroxyethoxy)-2,3-dihydro-[1,4]dioxino[2,3-f]quinolin-10-yl)oxy)phenyl)-N-(4-fluorophenyl)cyclopropan-1,1-dicarboxamide] | < 50 nM
13 | COCCCOc1cc2nccc(Oc3ccc(NC(=O)C4(C(=O)Nc5ccc(F)cc5)CC4)cc3F)c2c2c1OCCO2 [Example 14, N-(3-fluoro-4-((5-(3-methoxypropoxy)-2,3-dihydro-[1,4]dioxino[2,3-f]quinolin-10-yl)oxy)phenyl)-N-(4-fluorophenyl)cyclopropan-1,1-dicarboxamide] | < 50 nM
14 | O=C(Nc1ccc(F)cc1)C1(C(=O)Nc2ccc(Oc3ccnc4cc(OCCCN5CCOCC5)c5c(c34)OCCO5)cc2F)CC1 [Example 6, N-(2-fluoro-4-((5-(3-morpholinopropoxy)-2,3-dihydro-[1,4]dioxino[2,3-f]quinolin-10-yl)oxy)phenyl)-N-(4-fluorophenyl)cyclopropan-1,1-dicarboxamide] | < 50 nM
15 | CN(C)CCCCCCOc1cc2nccc(Oc3ccc(NC(=O)C4(C(=O)Nc5ccc(F)cc5)CC4)cc3F)c2c2c1OCCO2 [Example 27, N-(4-((5-((6-(dimethylamino)hexyl)oxy)-2,3-dihydro-[1,4]dioxino[2,3-f]quinolin-10-yl)oxy)-3-fluorophenyl)-N-(4-fluorophenyl)cyclopropan-1,1-dicarboxamide] | < 50 nM
16 | NC1(COc2cc3nccc(Oc4ccc(NC(=O)C5(C(=O)Nc6ccc(F)cc6)CC5)cc4F)c3c3c2OCCO3)CC1 [Example 33, N-(4-((5-((1-aminocyclopropyl)methoxy)-2,3-dihydro-[1,4]dioxino[2,3-f]quinolin-10-yl)oxy)-3-fluorophenyl)-N-(4-fluorophenyl)cyclopropan-1,1-dicarboxamide] | < 50 nM
17 | CN1CCN(CCCOc2cc3nccc(Oc4ccc(NC(=O)C5(C(=O)Nc6ccc(F)cc6)CC5)cc4F)c3c3c2OCCO3)CC1 [Example 21, N-(4-((5-(3-(4-methylpiperazin-1-yl)propoxy)-2,3-dihydro-[1,4]dioxino[2,3-f]quinolin-10-yl)oxy)-3-fluorophenyl)-N-(4-fluorophenyl)cyclopropan-1,1-dicarboxamide] | < 50 nM
18 | O=C(Nc1ccc(F)cc1)C1(C(=O)Nc2ccc(Oc3ccnc4cc(OCCCN5CCOCC5)c5c(c34)OCCO5)cc2)CC1 [Example 4, N-(4-fluorophenyl)-N-(4-((5-(3-morpholinopropoxy)-2,3-dihydro-[1,4]dioxino[2,3-f]quinolin-10-yl)oxy)phenyl)cyclopropan-1,1-dicarboxamide] | < 50 nM
19 | O=C(Nc1ccc(F)cc1)C1(C(=O)Nc2ccc(Oc3ccnc4cc(OCCCO)c5c(c34)OCCO5)c(F)c2)CC1 [Example 13, N-(3-fluoro-4-((5-(3-hydroxypropoxy)-2,3-dihydro-[1,4]dioxino[2,3-f]quinolin-10-yl)oxy)phenyl)-N-(4-fluorophenyl)cyclopropan-1,1-dicarboxamide] | < 50 nM
20 | N#CCCCOc1cc2nccc(Oc3ccc(NC(=O)C4(C(=O)Nc5ccc(F)cc5)CC4)cc3F)c2c2c1OCCO2 [Example 26, N-(3-fluoro-4-((5-(3-cyanopropoxy)-2,3-dihydro-[1,4]dioxino[2,3-f]quinolin-10-yl)oxy)phenyl)-N-(4-fluorophenyl)cyclopropan-1,1-dicarboxamide] | < 50 nM
21 | O=C(Nc1ccc(F)cc1)C1(C(=O)Nc2ccc(Oc3ccnc4cc(OCCCN5CCCC5)c5c(c34)OCCO5)c(F)c2)CC1 [Example 25, N-(3-fluoro-4-((5-(3-(pyrrolidin-1-yl)propoxy)-2,3-dihydro-[1,4]dioxino[2,3-f]quinolin-10-yl)oxy)phenyl)-N-(4-fluorophenyl)cyclopropan-1,1-dicarboxamide] | < 50 nM
22 | CN(CCCOc1cc2nccc(Oc3ccc(NC(=O)C4(C(=O)Nc5ccc(F)cc5)CC4)cc3F)c2c2c1OCCO2)C1CCC1 [Example 23, N-(4-((5-(3-(cyclobutyl(methyl)amino)propoxy)-2,3-dihydro-[1,4]dioxino[2,3-f]quinolin-10-yl)oxy)-3-fluorophenyl)-N-(4-fluorophenyl)cyclopropan-1,1-dicarboxamide] | < 50 nM
23 | COc1cc2nccc(Oc3ccc(NC(=O)C4(C(=O)Nc5ccc(F)cc5)CC4)c(F)c3)c2c2c1OCCO2 [Example 3, N-(2-fluoro-4-((5-methoxy-2,3-dihydro-[1,4]dioxino[2,3-f]quinolin-10-yl)oxy)phenyl)-N-(4-fluorophenyl)cyclopropan-1,1-dicarboxamide] | < 50 nM
24 | O=C(Nc1ccc(F)cc1)C1(C(=O)Nc2ccc(Oc3ccnc4cc(OCCCN5CCOCC5)c5c(c34)OCCO5)c(F)c2)CC1 [Example 5, N-(3-fluoro-4-((5-(3-morpholinopropoxy)-2,3-dihydro-[1,4]dioxino[2,3-f]quinolin-10-yl)oxy)phenyl)-N-(4-fluorophenyl)cyclopropan-1,1-dicarboxamide] | < 50 nM
